Test results taken from patent publication US4036957A, “Phenoxy compounds in combinations to suppress gastric bleeding in aspirin therapy” (priority 1975, dated 1977).
Where two headings read alike, the source gives them in different places.

Tests used:
[1] = tested on: aspirin-induced gastric bleeding; assay: Prevention of aspirin-induced gastric bleeding in pyloric-ligated rats, i.p. test compound (Examples 1-22); assay type: in vivo, Female Sprague-Dawley rats; conditions: for Gastric Bleeding Index: score 0 to 40
Procedure: The prevention of aspirin-induced bleeding in rats was determined by the following procedure. Female Sprague-Dawley rats weighing 150-180 g. were fasted for 24 hours on wire and divided into groups of six animals each. The rats were anesthetized and a ligature placed at the pyloric-duodenal junction. Groups serving as controls received normal saline (4.0 ml/kg, i.p.). […] Some of the compounds were tested at 50 mg/kg, i.p. The rats were sacrificed 60 min. after aspirin administration by cervical dislocation. The volume of the gastric contents was determined and compared against that produced with the same amount of aspirin for change in volume. […] (Gradation between 0 to 40 is on an even scale).

[2] = tested on: aspirin-induced gastric bleeding; assay: Aspirin-induced gastric bleeding in Cr51 labeled Heidenhain pouch dogs, oral; assay type: in vivo; conditions: dog
Procedure: Methocarbamol (Compound 3) and Metaxalone (Compound 15) were evaluated for their effectiveness upon oral administration against aspirin-induced gastric bleeding in dogs. Three female chronic Heindehain pouch dogs were used. Red blood cells from each dog were labeled with Cr^51. The dogs were fasted 24 hours prior to any study and three days elapsed between studies. On experimental days each fundic pouch was rinsed with tepid tap water and then filled with 10 ml. of normal saline. After 30 minutes the saline was replaced with 10 ml. of artificial gastric juice (USP, pH 1.3). The dogs were given Compound 3 (200 mg/kg) or Compound 15 (50 and 100 mg/kg) or placebo (starch) orally in gelatin capsules. The 10 ml. of gastric juice was removed from the pouch after 60 minutes and replaced with another 10 ml. of juice containing 100 mg. of aspirin (80 mesh). This was likewise removed after 60 minutes. All samples collected from the pouches were counted for radio-activity using a deep-well counter. From the amount of radio-activity present in the gastric samples, the loss of blood into the pouch was determined. The results are shown in Table 3 and show the effectiveness of orally administering Compounds 3 and 15 in preventing aspirin-induced gastric bleeding.

aspirin-induced bleeding = conditions: rat; for Gastric Bleeding Index / Percent Decrease In Mucosal Hemorrhage vs. Control / Total Hemoglobin Loss / Volume Gastric Secretion: aspirin 375 p.o.; for Total Hemoglobin Loss / Volume Gastric Secretion: ± S.E.
Procedure: The effect of glyceryl guaiacolate (Compound 8) on aspirin-induced bleeding in rats was studied using the following procedure. Female Sprague-Dawley rats, weighing 140-160 g. and fasted for 24 hrs. on wire were divided into groups of 10 animals each. All animals were anesthetized with Metofane® and a ligature placed at the pyloric-duodenal junction. Groups serving as controls received normal saline (4.0 ml/kg, i.p.). Some groups received normal saline and in addition were given aspirin (375 mg/kg, p.o.) in artificial gastric juice; the remaining groups received aspirin in the same amount and also glyceryl guaiacolate 30 min. prior to the aspirin. The aspirin was administered in artificial gastric juice (USP, […]) in a total volume of 2 ml. to each rat. Following a recovery period of 1 hr. the animals received saline, aspirin and glyceryl guaiacolate in the amounts and by the routes indicated. In most of the experiments, 90 min. following aspirin the rats were sacrificed by cervical dislocation. The stomachs were removed and gastric contents collected for further analysis. […] Hemoglobin loss produced by the aspirin was determined by the colorimetric method of Bing and Baker (J. Biol. Chem. 92: 589, 1931). The condition of the gastric mucosa was also assessed by determining the incidence and severity of damage using the scoring system described hereinabove to obtain the "Gastric Bleeding Index".
Following the procedure of Example 26, methocarbamol (Compound 3 ) was tested further in rats via intraperitoneal and intraduodenal administration.

[3] = rat, 100 mg/kg i.p. (column head states no dose), aspirin 375 mg/kg p.o.
[4] = ip, 1 h, rat, 100 mg/kg i.p., aspirin 375 mg/kg p.o., read-out: Percent Decrease in Mucosal Bleeding vs Control
[5] = ip, rat, 100 mg/kg i.p. (column head states no dose), aspirin 375 mg/kg p.o., read-out: Vol. % Decrease in Gastric Secretion
[6] = 100 mg/kg intraduodenal, P <0.05
[7] = 200 mg/kg intraduodenal, P <0.05
[8] = 400 mg/kg intraduodenal, P <0.05

Molecule: 1-(3,5-dimethyl)-2-hydroxypropyl-4-ethyl thiosemicarbazide [Compound 19]
- Vol. % Decrease in Gastric Secretion [1, 3]: -40.5%
- Percent Decrease in Mucosal Bleeding vs Control ([1]; rat, 100 mg/kg i.p., aspirin 375 mg/kg p.o.): 100%
- Gastric Bleeding Index [1, 3]: 0.0

Molecule: OCC(CO)Oc1ccccc1 [Compound 1, 2-phenoxy-1,3-propanediol]
- change in vivo at 100 mg/kg [1, 4]: -15%
- Gastric Bleeding Index [1, 3]: 31.7

Molecule: OCC(O)COc1ccccc1 (centres unmarked) [Compound 2, 3-phenoxy-1,2-propanediol]
- change in vivo at 100 mg/kg ([1]; Rattus norvegicus, ip, 1 h, read-out: Percent Decrease in Mucosal Bleeding vs Control): -14%
- change in vivo at 100 mg/kg ([1]; Rattus norvegicus, ip, read-out: Vol. % Decrease in Gastric Secretion): -14.1%
- Gastric Bleeding Index [1, 3]: 20.0

Molecule: COc1ccccc1OCC(O)COC(N)=O (centres unmarked) [Compound 3, 3-(o-methoxyphenoxy)-1,2-propanediol-1-carbamate]
- % Protection ([2]; 200 mg/kg p.o.): 79%
- Mucosal Blood Loss, HCl + Aspirin ([2]; 200 mg/kg p.o., ± S.E.): 6.6 ± 3.1 µL
- Mucosal Blood Loss, HCl ([2]; 200 mg/kg p.o., ± S.E., without aspirin): 3.5 ± 0.7 µL
- % Change from Control (mucosal blood loss) ([2]; 200 mg/kg p.o., P > .05): +88%
- preventing aspirin-induced gastric bleeding (in words) ([2]; oral): effectiveness
- change in vivo at 100 mg/kg [1, 4]: -43%
- change in vivo at 100 mg/kg [1, 5]: -18.3%
- Gastric Bleeding Index [1, 3]: 21.7
- Gastric Bleeding Index (aspirin-induced bleeding; 50 mg/kg i.p.): 34 ± 2
- Percent Decrease In Mucosal Hemorrhage vs. Control (aspirin-induced bleeding; 50 mg/kg i.p.): none
- Total Hemoglobin Loss (aspirin-induced bleeding; 50 mg/kg i.p.): 22.4 ± 2.4 mg
- Volume Gastric Secretion (aspirin-induced bleeding; 50 mg/kg i.p.): 6.2 ± 0.5 mL
- Percent Decrease In Mucosal Hemorrhage vs. Control (aspirin-induced bleeding; 100 mg/kg i.p.): 62%
- Volume Gastric Secretion (aspirin-induced bleeding; 100 mg/kg i.p.): 5.5 ± 0.3 mL
- Total Hemoglobin Loss (aspirin-induced bleeding; 100 mg/kg i.p., P <0.05): 11.6 ± 3.6 mg
- Gastric Bleeding Index (aspirin-induced bleeding; 100 mg/kg i.p., P <0.05): 13 ± 6
- Gastric Bleeding Index (aspirin-induced bleeding; 100 mg/kg intraduodenal): 24 ± 3
- Percent Decrease In Mucosal Hemorrhage vs. Control (aspirin-induced bleeding; 100 mg/kg intraduodenal): 27%
- Total Hemoglobin Loss (aspirin-induced bleeding; [6]): 27.8 ± 0.1 mg
- Volume Gastric Secretion (aspirin-induced bleeding; [6]): 5.0 ± 0.1 mL
- Percent Decrease In Mucosal Hemorrhage vs. Control (aspirin-induced bleeding; 200 mg/kg i.p.): 97%
- Total Hemoglobin Loss (aspirin-induced bleeding; 200 mg/kg i.p., P <0.05): 1.5 ± 0.5 mg
- Volume Gastric Secretion (aspirin-induced bleeding; 200 mg/kg i.p., P <0.05): 3.7 ± 0.4 mL
- Gastric Bleeding Index (aspirin-induced bleeding; 200 mg/kg i.p., P <0.05): 1 ± 1
- Percent Decrease In Mucosal Hemorrhage vs. Control (aspirin-induced bleeding; 200 mg/kg intraduodenal): 67%
- Total Hemoglobin Loss (aspirin-induced bleeding; [7]): 7.0 ± 2.8 mg
- Volume Gastric Secretion (aspirin-induced bleeding; [7]): 3.5 ± 0.6 mL
- Gastric Bleeding Index (aspirin-induced bleeding; [7]): 11 ± 6
- Percent Decrease In Mucosal Hemorrhage vs. Control (aspirin-induced bleeding; 400 mg/kg intraduodenal): 99%
- Total Hemoglobin Loss (aspirin-induced bleeding; [8]): 5.1 ± 3.6 mg
- Volume Gastric Secretion (aspirin-induced bleeding; [8]): 1.3 ± 0.1 mL
- Gastric Bleeding Index (aspirin-induced bleeding; [8]): 0.4 ± 1
- reducing bleeding (in words) (aspirin-induced bleeding; one part by weight methocarbamol to 3.75 parts aspirin): significantly effective

Molecule: COc1ccccc1OCC(O)COC(=O)N(C)C (centres unmarked) [Compound 4, N,N-dimethyl 3-(2-methoxyphenoxy)-1,2-propanediol-1-carbamate]
- change in vivo at 100 mg/kg [1, 4]: -70%
- change in vivo at 100 mg/kg [1, 5]: -35.2%
- Gastric Bleeding Index [1, 3]: 11.7

Molecule: COc1ccccc1OCC(C)O (centres unmarked) [Compound 5, 1-(2-methoxyphenoxy)-2-propanol]
- change in vivo at 100 mg/kg [1, 4]: -66%
- change in vivo at 100 mg/kg [1, 5]: -42%
- Gastric Bleeding Index [1, 3]: 12.5

Molecule: COc1ccc(Cl)cc1OCC(C)O (centres unmarked) [Compound 6, 1-(5-chloro-2-methoxyphenoxy)-2-propanol]
- change in vivo at 100 mg/kg [1, 4]: -93%
- change in vivo at 100 mg/kg [1, 5]: -42.2%
- Gastric Bleeding Index [1, 3]: 1.7

Molecule: COc1ccc(Cl)cc1OCC(O)CO (centres unmarked) [Compound 7, 3-(5-chloro-2-methoxyphenoxy)-1,2-propanediol]
- change in vivo at 100 mg/kg [1, 4]: -49%
- change in vivo at 100 mg/kg [1, 5]: -42%
- Gastric Bleeding Index [1, 3]: 19.2

Molecule: Cc1ccc(Cl)cc1OCC(O)COC(N)=O (centres unmarked) [Compound 9, 3-(5-chloro-2-methylphenoxy)-1,2-propanediol-1-carbamate]
- change in vivo at 100 mg/kg [1, 4]: -81%
- change in vivo at 100 mg/kg [1, 5]: -36.6%
- Gastric Bleeding Index [1, 3]: 7.2

Molecule: Cc1c(Cl)cccc1OCC(C)O (centres unmarked) [Compound 10, 1-(3-chloro-2-methylphenoxy)-2-propanol]
- change in vivo at 100 mg/kg [1, 4]: -40%
- change in vivo at 100 mg/kg [1, 5]: -18.8%
- Gastric Bleeding Index [1, 3]: 22.5

Molecule: Cc1ccc(Cl)cc1OCC(O)CO (centres unmarked) [Compound 11, 3-(5-chloro-2-methylphenoxy)-1,2-propanediol]
- change in vivo at 100 mg/kg [1, 4]: -10%
- change in vivo at 100 mg/kg [1, 5]: -29.7%
- Gastric Bleeding Index [1, 3]: 20.8

Molecule: Cc1ccc(Cl)cc1OCC(C)O (centres unmarked) [Compound 12, 3-(5-chloro-2-methylphenoxy)-2-propanol]
- change in vivo at 100 mg/kg [1, 4]: -75%
- change in vivo at 100 mg/kg [1, 5]: -35.9%
- Gastric Bleeding Index [1, 3]: 5.8

Molecule: COc1ccc(Cl)cc1OCC(O)COC(N)=O (centres unmarked) [Compound 13, 3-(5-chloro-2-methoxyphenoxy)-1,2-propanediol-1-carbamate]
- change in vivo at 100 mg/kg [1, 4]: -100%
- change in vivo at 100 mg/kg [1, 5]: -57.6%
- Gastric Bleeding Index [1, 3]: 0.0

Molecule: CCCCNCC(O)COc1ccccc1OC (centres unmarked) [Compound 14, 1-(n-butylamino)-3-(2-methoxyphenoxy)-2-propanol]
- change in vivo at 50 mg/kg ([1]; ip, 1 h, rat, 50 mg/kg i.p., aspirin 375 mg/kg p.o., read-out: Percent Decrease in Mucosal Bleeding vs Control): -78%
- change in vivo at 100 mg/kg [1, 4]: -70%
- change in vivo at 100 mg/kg [1, 5]: -35.6%
- Toxicity remark ([1]; rat, 100 mg/kg i.p.): Toxic
- Gastric Bleeding Index [1, 3]: 5.8

Molecule: O=C1NCC(COc2ccc(Cl)cc2Cl)O1 (centres unmarked) [Compound 16, 5-(2,4-dichlorophenoxymethyl)-2-oxazolidinone]
- change in vivo at 100 mg/kg [1, 4]: -100%
- change in vivo at 100 mg/kg [1, 5]: -44.6%
- Gastric Bleeding Index [1, 3]: 0.0

Molecule: Cc1cccc(Cl)c1OCC(C)OC(N)=O (centres unmarked) [Compound 17, 1-(6-chloro-2-methylphenoxy)-2-propylcarbamate]
- change in vivo at 100 mg/kg [1, 4]: -72%
- change in vivo at 100 mg/kg [1, 5]: -36.5%
- Gastric Bleeding Index [1, 3]: 7.5

Molecule: Cc1cc(Cl)ccc1OCC(C)OC(=O)NC(C)C (centres unmarked) [Compound 18, N-isopropyl 1-(4-chloro-2-methylphenoxy)-2-propylcarbamate]
- change in vivo at 100 mg/kg [1, 4]: -28%
- change in vivo at 100 mg/kg [1, 5]: -29.3%
- Gastric Bleeding Index [1, 3]: 19.2

Molecule: CNC(=O)N1CCC(Oc2cccc(Cl)c2)C1 (centres unmarked) [Compound 20, 3-(3-chlorophenoxy)-1-methylcarbamoyl-pyrrolidine]
- change in vivo at 100 mg/kg [1, 4]: -100%
- change in vivo at 100 mg/kg [1, 5]: -31%
- Gastric Bleeding Index [1, 3]: 0.0

Molecule: NC(=O)OCC(O)COc1ccc(Cl)cc1 (centres unmarked) [Compound 21, 3-(4-chlorophenoxy)-2-hydroxypropylcarbamate]
- change in vivo at 100 mg/kg [1, 4]: -78%
- change in vivo at 100 mg/kg [1, 5]: -30.5%
- Gastric Bleeding Index [1, 3]: 4.2

Molecule: CN(C)CCNC(=O)N1CCC(Oc2cccc(Cl)c2)C1 (centres unmarked) [Compound 30, 3-(3-chlorophenoxy)-N-[2-(dimethylaminoethyl)carboxamide]-1-pyrrolidine]
- change in vivo at 100 mg/kg [1, 4]: -100%
- change in vivo at 30 mg/kg ([1]; ip, 1 h, rat, at 30 mg/kg (footnote b), read-out: Percent Decrease in Mucosal Bleeding vs Control): -97%
- change in vivo at 30 mg/kg ([1]; ip, rat, at 30 mg/kg (footnote b), read-out: Vol. % Decrease in Gastric Secretion): -32.8%
- Gastric Bleeding Index ([1]; rat, at 30 mg/kg (footnote b)): 0.8
